Biological target: Insulin-regulated aminopeptidase (Homo sapiens)
Test: Inhibition of recombinant human IRAP using L-AMC as substrate preincubated for 30 mins followed by substrate addition and measured after 1 hr by fluorescence based assay

IC50 | SMILES
60.3 µM | O=C(NO)c1ccc(S(=O)(=O)N2CCCCC2)s1
16.3 µM | O=C(Cc1ccc(S(=O)(=O)N2CCCCC2)s1)NO
40.9 µM | O=C1N=C(S)SC1=Cc1ccc(C(=O)O)cc1
15.1 µM | O=C(O)c1cccc(S(=O)(=O)N2CCC(F)CC2)c1
88.1 µM | O=C(O)c1cccc(S(=O)(=O)N2CCCC2)c1
13.3 µM | CN1C(=O)SC(Cc2ccc(C(=O)O)cc2)C1=O (configuration not stated)
14.4 µM | O=C(O)c1cccc(S(=O)(=O)N2CCCCC2)c1

From BindingDB's records for PubMed 39369482 (Univ. Lille)
